Reference: ChEMBL document CHEMBL4321867, “Optimization of LpxC Inhibitor Lead Compounds Focusing on Efficacy and Formulation for High Dose Intravenous Administration” (J Med Chem, 2020)
Values after ≈ are worked out from the molar mass of the structure shown.

Assays:
physchem [1] = details: buffer, pH 7
Klebsiella pneumoniae [2] = test: microbe, parasite or virus in culture; details: T6474
physchem [3] = details: n-octanol/phosphate buffer, pH 7.4
in vitro [4] = details: rat, liver microsomes
Escherichia coli [5] = test: microbe, parasite or virus in culture; details: ATCC 25922
in vitro [6] = details: rat, hepatocytes
in vivo [7] = details: mouse, sc, 150 mg/kg
physchem [8] = details: buffer, pH 9
Pseudomonas aeruginosa [9] = test: microbe, parasite or virus in culture; details: ATCC 27853
physchem [10] = details: buffer, pH 4
physchem [11] = test: physchem
in vitro [12] = details: human, hepatocytes
in vivo [13] = details: Wistar, rat, iv, 10 mg/kg
in vitro [14] = details: rat, plasma
[15] = tested on: T1, UDP-3-O-acyl-N-acetylglucosamine deacetylase (Pseudomonas aeruginosa (strain ATCC 15692 / PAO1 / 1C / PRS 101 / LMG12228)), P47205 [C40S]; details: 25 uM
T1 sequence (whole entry): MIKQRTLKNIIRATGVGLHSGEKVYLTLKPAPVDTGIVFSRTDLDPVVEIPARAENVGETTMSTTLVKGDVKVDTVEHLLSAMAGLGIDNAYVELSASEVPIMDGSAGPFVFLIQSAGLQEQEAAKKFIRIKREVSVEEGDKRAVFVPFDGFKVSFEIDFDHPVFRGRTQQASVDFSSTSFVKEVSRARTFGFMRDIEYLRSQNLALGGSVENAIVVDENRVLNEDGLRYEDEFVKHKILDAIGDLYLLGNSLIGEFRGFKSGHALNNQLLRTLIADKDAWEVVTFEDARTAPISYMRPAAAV

in vitro [16] = details: human, liver microsomes
[17] = tested on: T2, UDP-3-O-acyl-N-acetylglucosamine deacetylase (Escherichia coli K-12), P0A725 [C125S]; details: 25 uM
T2 sequence (whole entry): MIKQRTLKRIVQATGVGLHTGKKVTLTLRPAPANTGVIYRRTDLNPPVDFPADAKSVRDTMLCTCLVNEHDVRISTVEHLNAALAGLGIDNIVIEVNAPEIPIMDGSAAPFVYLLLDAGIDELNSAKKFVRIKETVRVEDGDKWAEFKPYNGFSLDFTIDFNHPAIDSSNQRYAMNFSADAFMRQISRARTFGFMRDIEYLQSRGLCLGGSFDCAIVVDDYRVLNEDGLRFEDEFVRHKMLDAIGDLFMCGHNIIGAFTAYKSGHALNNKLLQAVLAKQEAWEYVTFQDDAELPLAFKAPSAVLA

Klebsiella aerogenes = test: microbe, parasite or virus in culture
Proteus mirabilis = test: microbe, parasite or virus in culture
Moraxella catarrhalis = test: microbe, parasite or virus in culture
Serratia marcescens = test: microbe, parasite or virus in culture
Citrobacter freundii = test: microbe, parasite or virus in culture
Burkholderia cepacia = test: microbe, parasite or virus in culture
Pseudomonas aeruginosa [18] = test: microbe, parasite or virus in culture
[19] = tested on: Stenotrophomonas maltophilia; test: microbe, parasite or virus in culture
Escherichia coli [20] = test: microbe, parasite or virus in culture
Enterobacter cloacae = test: microbe, parasite or virus in culture
Morganella morganii = test: microbe, parasite or virus in culture
physchem [21] = details: 5% mannitol/water, pH 4.5
Acinetobacter baumannii = test: microbe, parasite or virus in culture
Klebsiella pneumoniae [22] = test: microbe, parasite or virus in culture
Haemophilus influenzae = test: microbe, parasite or virus in culture
Klebsiella oxytoca = test: microbe, parasite or virus in culture

Compound	solubility at 24 h (physchem [1]) [µg/mL]	MIC (Klebsiella pneumoniae [2]) [µg/mL]	logD (physchem [3])	microsomal CLint at 1 µM (in vitro [4]) [µL/min/mg]	MIC (Escherichia coli [5]) [µg/mL]	hepatocyte CLint at 1 µM (in vitro [6]) [µL/min/1e6 cells]	AUC(0-t) at 24 h (in vivo [7]) [ng·h/mL]	solubility at 24 h (physchem [8]) [µg/mL]	MIC (Pseudomonas aeruginosa [9]) [µg/mL]	solubility at 24 h (physchem [10]) [µg/mL]	MIC90 (Klebsiella aerogenes) [µg/mL]	MIC90 (Proteus mirabilis) [µg/mL]	MIC90 (Moraxella catarrhalis) [µg/mL]	MIC90 (Serratia marcescens) [µg/mL]	MIC90 (Citrobacter freundii) [µg/mL]	MIC90 (Burkholderia cepacia) [µg/mL]	MIC90 (Pseudomonas aeruginosa [18]) [µg/mL]	MIC90 [19] [µg/mL]	MIC90 (Escherichia coli [20]) [µg/mL]	MIC90 (Morganella morganii) [µg/mL]	other results
C[C@@](CCN1Cc2cc(C#CC#CC3(CO)CC3)cn2C1=O)(C(=O)NO)S(C)(=O)=O	384 (≈ 886 µM)	1 (≈ 2.31 µM)	0.9	24	0.25 (≈ 0.577 µM)	8.5	89500	553 (≈ 1280 µM)	0.5 (≈ 1.15 µM)	149 (≈ 344 µM)	–	–	–	–	–	–	–	–	–	–	–
C[C@@](CCN1Cc2cc(C#CC#C[C@H]3C[C@]3(F)CO)cn2C1=O)(C(=O)NO)S(C)(=O)=O	613 (≈ 1360 µM)	0.5 (≈ 1.11 µM)	0.9	16	0.25 (≈ 0.554 µM)	13	–	> 760	0.5 (≈ 1.11 µM)	354 (≈ 784 µM)	–	–	–	–	–	–	–	–	–	–	–
C[C@@](CCN1Cc2cc(C#CC#CC3(N)CC3)cn2C1=O)(C(=O)NO)S(C)(=O)=O	–	0.25 (≈ 0.597 µM)	0.7	14	0.25 (≈ 0.597 µM)	17	44700	–	0.5 (≈ 1.19 µM)	–	–	–	–	–	–	–	–	–	–	–	pKa (physchem [11]): 6.5; hepatocyte CLint at 1 µM (in vitro [12]): < 2 µL/min/1e6 cells; clearance at 24 h (in vivo [13]): 29 mL/min/kg; fraction unbound at 1 µM (in vitro [14]): 0.111; deltaTm [15]: 11.6 K; microsomal CLint at 1 µM (in vitro [16]): < 10 µL/min/mg; deltaTm [17]: 10 K
C[C@@](CCN1Cc2cc(C#CC#CC3CN(CCF)C3)cn2C1=O)(C(=O)NO)S(C)(=O)=O	247 (≈ 532 µM)	0.25 (≈ 0.538 µM)	1	> 1250	0.06 (≈ 0.129 µM)	15.4	49100	> 780	0.5 (≈ 1.08 µM)	> 780	1 (≈ 2.15 µM)	0.5 (≈ 1.08 µM)	> 16	0.25 (≈ 0.538 µM)	0.5 (≈ 1.08 µM)	4 (≈ 8.61 µM)	1 (≈ 2.15 µM)	> 16	0.25 (≈ 0.538 µM)	0.25 (≈ 0.538 µM)	pKa (physchem [11]): 6.7; hepatocyte CLint at 1 µM (in vitro [12]): < 2 µL/min/1e6 cells; clearance at 24 h (in vivo [13]): 38 mL/min/kg; MIC90 (Enterobacter cloacae): 1 µg/mL (≈ 2.15 µM); fraction unbound at 1 µM (in vitro [14]): 0.067; deltaTm [15]: 12.9 K; solubility (physchem [21]): 25000 µg/mL (≈ 53800 µM); microsomal CLint at 1 µM (in vitro [16]): < 10 µL/min/mg; MIC90 (Acinetobacter baumannii): > 16 µg/mL; MIC90 (Klebsiella pneumoniae [22]): 2 µg/mL (≈ 4.31 µM); MIC90 (Haemophilus influenzae): ≤ 0.03 µg/mL; deltaTm [17]: 10.6 K; MIC90 (Klebsiella oxytoca): 0.125 µg/mL (≈ 0.269 µM)
O=C(O)c1cn(C2CC2)c2cc(N3CCNCC3)c(F)cc2c1=O [CIPROFLOXACIN]	–	–	–	–	–	–	–	–	–	–	0.03 (≈ 0.0905 µM)	0.125 (≈ 0.377 µM)	1 (≈ 3.02 µM)	0.25 (≈ 0.754 µM)	0.125 (≈ 0.377 µM)	8 (≈ 24.1 µM)	> 8	8 (≈ 24.1 µM)	> 8	≤ 0.016	MIC90 (Acinetobacter baumannii): > 8 µg/mL; MIC90 (Klebsiella pneumoniae [22]): > 8 µg/mL; MIC90 (Haemophilus influenzae): ≤ 0.016 µg/mL; MIC90 (Klebsiella oxytoca): ≤ 0.016 µg/mL
C[C@]1(CO)C[C@@H]1C#CC#Cc1cc2n(c1)C(=O)N(CC[C@](C)(C(=O)NO)S(C)(=O)=O)C2	401 (≈ 896 µM)	0.25 (≈ 0.559 µM)	1.6	< 10	0.25 (≈ 0.559 µM)	55	–	506 (≈ 1130 µM)	0.25 (≈ 0.559 µM)	344 (≈ 769 µM)	–	–	–	–	–	–	–	–	–	–	–
C[C@@](CCN1Cc2cc(C#CC#C[C@@H]3C[C@H]3[C@H](O)CO)cn2C1=O)(C(=O)NO)S(C)(=O)=O	> 780	1 (≈ 2.16 µM)	0.5	< 10	0.25 (≈ 0.539 µM)	10	–	> 780	0.5 (≈ 1.08 µM)	618 (≈ 1330 µM)	–	–	–	–	–	–	–	–	–	–	–
C[C@@H](O)[C@H]1C(=O)N2C(C(=O)O)=C(SCCNC=N)C[C@H]12 [IMIPENEM ANHYDROUS]	–	–	–	–	–	–	–	–	–	–	2 (≈ 6.68 µM)	4 (≈ 13.4 µM)	0.06 (≈ 0.2 µM)	1 (≈ 3.34 µM)	1 (≈ 3.34 µM)	> 16	> 16	> 16	0.25 (≈ 0.835 µM)	16 (≈ 53.4 µM)	MIC90 (Enterobacter cloacae): 1 µg/mL (≈ 3.34 µM); MIC90 (Acinetobacter baumannii): > 16 µg/mL; MIC90 (Klebsiella pneumoniae [22]): > 16 µg/mL; MIC90 (Haemophilus influenzae): 0.5 µg/mL (≈ 1.67 µM); MIC90 (Klebsiella oxytoca): 0.5 µg/mL (≈ 1.67 µM)
CC(C)(O)CN1CC(C#CC#Cc2cc3n(c2)C(=O)N(CC[C@](C)(C(=O)NO)S(C)(=O)=O)C3)C1	> 830	1 (≈ 2.04 µM)	0.7	–	0.5 (≈ 1.02 µM)	–	47300	> 830	0.5 (≈ 1.02 µM)	> 830	–	–	–	–	–	–	–	–	–	–	pKa (physchem [11]): 7.8; deltaTm [15]: 12.1 K; deltaTm [17]: 10.3 K
CN(C)c1cc(NC(=O)CNC(C)(C)C)c(O)c2c1C[C@H]1C[C@H]3[C@H](N(C)C)C(O)=C(C(N)=O)C(=O)[C@@]3(O)C(O)=C1C2=O [TIGECYCLINE]	–	–	–	–	–	–	–	–	–	–	1 (≈ 1.71 µM)	4 (≈ 6.83 µM)	0.5 (≈ 0.854 µM)	2 (≈ 3.41 µM)	1 (≈ 1.71 µM)	> 16	> 16	4 (≈ 6.83 µM)	1 (≈ 1.71 µM)	8 (≈ 13.7 µM)	MIC90 (Enterobacter cloacae): 4 µg/mL (≈ 6.83 µM); MIC90 (Acinetobacter baumannii): 16 µg/mL (≈ 27.3 µM); MIC90 (Klebsiella pneumoniae [22]): 4 µg/mL (≈ 6.83 µM); MIC90 (Haemophilus influenzae): 0.25 µg/mL (≈ 0.427 µM); MIC90 (Klebsiella oxytoca): 0.5 µg/mL (≈ 0.854 µM)
